Measurements taken from ChEMBL document CHEMBL1201862, “PubChem BioAssay data set” (2004).
Active and inactive are the calls of the source.

Experiments:
[1] = target: T1, High affinity choline transporter 1 (Homo sapiens, UniProt Q9GZV3); test: CHT inhibitors, dose response, cell-based, 5-point CRC, membrane potential dye (AID 504840); format: functional
T1 sequence (Q9GZV3 whole entry): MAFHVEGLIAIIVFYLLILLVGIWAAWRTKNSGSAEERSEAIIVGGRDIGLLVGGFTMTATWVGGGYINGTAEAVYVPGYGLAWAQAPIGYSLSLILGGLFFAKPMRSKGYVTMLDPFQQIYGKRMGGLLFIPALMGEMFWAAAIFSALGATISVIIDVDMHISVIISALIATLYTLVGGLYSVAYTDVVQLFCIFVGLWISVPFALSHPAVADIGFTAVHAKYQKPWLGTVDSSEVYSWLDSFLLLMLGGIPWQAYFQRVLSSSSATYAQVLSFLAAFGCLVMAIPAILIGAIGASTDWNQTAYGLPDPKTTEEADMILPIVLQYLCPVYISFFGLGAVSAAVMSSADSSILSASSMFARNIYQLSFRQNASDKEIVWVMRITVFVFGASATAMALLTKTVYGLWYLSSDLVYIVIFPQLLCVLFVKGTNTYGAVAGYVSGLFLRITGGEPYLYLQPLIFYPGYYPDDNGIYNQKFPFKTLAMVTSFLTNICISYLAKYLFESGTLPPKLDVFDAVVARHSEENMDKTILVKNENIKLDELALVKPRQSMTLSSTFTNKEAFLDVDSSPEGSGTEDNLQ

[2] = test system: H9c2; test: cells; format: functional, cell-based; conditions: Rattus norvegicus, H9c2, Myocardium;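 note: confirmatory concentration-response retest of ultra-high-throughput screening hits for modulation of myocardial damage; cell death induced by hydrogen peroxide oxidative stress; compound pretreatment for 60 min then peroxide exposure for 2 h; potency is for protecting the cells against peroxide damage rather than for killing them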
[3] = cytotoxicity toward NIH3T3 fibroblasts, dose response, counter-screen, cell-based, ATP luminescence, mouse fibroblasts (AID 2010); format: functional;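 note: cells exposed to compound for about 90 hours before reading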
[4] = inhibitors of intracellular T. cruzi replication, confirmation, NIH3T3 host cells, beta-gal luminescence (AID 2044); format: functional, cell-based;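 note: intracellular parasites grown in NIH/3T3 mouse fibroblasts as host cells; luminescent beta-galactosidase reporter signal from transgenic T. cruzi replicating inside host cells; inhibitors lower the luminescence signal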
[5] = target: FAD-linked sulfhydryl oxidase ALR (Homo sapiens, UniProt P55789); test: inhibitors of human ALR sulfhydryl oxidase, dose response, biochemical, H2O2 detection, luminescence, cherry-pick (AID 493248)
[6] = test system: INS1; test: beta cell apoptosis inhibitors, cytokine rescue, dose response, luminescence, retest (AID 449756); format: functional, cell-based; conditions: Rattus norvegicus;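 note: cell death triggered by IL-1 beta plus TNF-alpha plus IFN-gamma mixture; protective hits raise ATP signal compared with cytokine alone wells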
[7] = target: T2, Polyadenylate-binding protein 1 (Homo sapiens, UniProt P11940); test: PABP1 MLLE–PAM2 binding inhibitor potency, dose response, biochemical, fluorescence polarization, FITC-PAM2 peptide (AID 602259); format: functional; conditions: read-out: IC50_Mean
[8] = target: T2, Polyadenylate-binding protein 1; test: PABP1 MLLE–PAM2 interaction inhibitors, dose response, miRNA deadenylation inhibitor project, biochemical, fluorescence polarization, Cy5-PAM2 peptide, secondary (AID 602260); format: functional; conditions: read-out: IC50_Mean
[9] = LGR2 antagonists, dose response, cell-based, HEK293, CRE-luciferase reporter, cherry pick, set 2 (AID 743343); format: functional;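 note: transfected cells were stimulated with diluted bursicon conditioned medium after compound addition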
[10] = MC4R antagonists, dose response, counter-screen for LGR2 antagonist project, cell-based, plate reader, cherry pick (AID 743444); format: functional;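 note: transfected HEK 293 cells stimulated with alpha-MSH peptide; potency of inhibitors of the alpha-MSH evoked signal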
[11] = A549 cell cytotoxicity, dose response, cytotoxicity control, plate reader, cherry-pick, antagonist series (AID 743412); format: functional, cell-based
[12] = target: T3, Microphthalmia-associated transcription factor (Homo sapiens, UniProt O75030); test: TRPM1 promoter luciferase signal decrease, dose response, MITF inhibitor project, cell-based, SK-MEL-5, cherry-picked, set 3 (AID 493073); format: functional
T3 sequence (O75030 whole entry): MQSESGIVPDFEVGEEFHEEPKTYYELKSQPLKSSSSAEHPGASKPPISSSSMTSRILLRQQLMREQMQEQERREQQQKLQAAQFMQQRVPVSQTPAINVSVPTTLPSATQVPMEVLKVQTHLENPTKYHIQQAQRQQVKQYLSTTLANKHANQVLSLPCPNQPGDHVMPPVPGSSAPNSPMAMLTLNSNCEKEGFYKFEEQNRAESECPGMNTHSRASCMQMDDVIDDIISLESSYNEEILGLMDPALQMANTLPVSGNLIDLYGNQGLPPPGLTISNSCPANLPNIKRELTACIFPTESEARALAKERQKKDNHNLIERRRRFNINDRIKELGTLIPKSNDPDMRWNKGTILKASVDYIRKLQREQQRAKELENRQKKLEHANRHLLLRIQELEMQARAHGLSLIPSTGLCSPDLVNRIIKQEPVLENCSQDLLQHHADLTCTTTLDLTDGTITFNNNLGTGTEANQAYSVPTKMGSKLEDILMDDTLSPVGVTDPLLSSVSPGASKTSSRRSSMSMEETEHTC

[13] = inhibitors of SNCA 5'UTR-driven reporter translation, confirmation, H4 neuroglioma cells, luminescence (AID 1988); format: functional, cell-based
[14] = Luminescence Cell-Based Dose Response HTS to Identify Inhibitors of 5'UTR Stem-Loop Driven Prion Protein mRNA Translation in H4 Neuroglioblastoma Cells. [Related pubchem assays: 1827 (Project Summary), 1813 (Primary HTS)]; format: functional
[15] = inhibitors of firefly luciferase expression or activity, dose response, H4 neuroglioma cells, luminescence (AID 1990); format: functional, cell-based
[16] = microbe, parasite or virus in culture; format: functional; conditions: Mycobacterium tuberculosis

T2 sequence (P11940 whole entry): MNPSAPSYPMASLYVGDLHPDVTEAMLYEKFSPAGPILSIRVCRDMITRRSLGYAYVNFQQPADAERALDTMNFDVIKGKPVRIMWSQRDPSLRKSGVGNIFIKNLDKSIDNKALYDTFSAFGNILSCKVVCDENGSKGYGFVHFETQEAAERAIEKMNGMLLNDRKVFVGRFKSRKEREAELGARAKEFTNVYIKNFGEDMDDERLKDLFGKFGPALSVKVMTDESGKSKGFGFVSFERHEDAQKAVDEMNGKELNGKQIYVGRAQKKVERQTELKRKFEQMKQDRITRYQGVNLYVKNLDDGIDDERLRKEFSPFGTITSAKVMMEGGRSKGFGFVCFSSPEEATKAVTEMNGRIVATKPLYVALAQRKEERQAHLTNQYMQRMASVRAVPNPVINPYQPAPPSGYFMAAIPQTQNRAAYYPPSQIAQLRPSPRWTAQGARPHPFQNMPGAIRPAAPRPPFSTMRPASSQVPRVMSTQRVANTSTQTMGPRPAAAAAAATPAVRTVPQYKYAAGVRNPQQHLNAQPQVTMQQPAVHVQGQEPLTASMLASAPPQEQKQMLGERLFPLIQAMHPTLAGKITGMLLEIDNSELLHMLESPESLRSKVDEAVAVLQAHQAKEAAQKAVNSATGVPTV
FAD-linked sulfhydryl oxidase ALR, sequence (P55789 whole entry): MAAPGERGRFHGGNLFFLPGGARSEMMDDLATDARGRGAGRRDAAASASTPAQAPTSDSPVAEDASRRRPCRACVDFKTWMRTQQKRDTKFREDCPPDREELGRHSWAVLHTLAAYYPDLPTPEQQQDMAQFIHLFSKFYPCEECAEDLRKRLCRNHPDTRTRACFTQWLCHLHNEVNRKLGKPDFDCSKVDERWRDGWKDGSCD

For `CC1(C(=O)N2CCC(CC3CC(c4ccc(Cl)cc4)=NO3)(C(=O)NCC3CCCCC3)CC2)CC1` (stereo not drawn), the IC50 [1] was 6.92 µM (active).

With `COc1ccc(-c2ccc3c(c2)S(=O)(=O)c2cccc(C(=O)NC[C@@H]4CCCO4)c2C3=O)cc1OC` the IC50 [2] was > 79 µM (inactive).

In the case of `CCn1c(-c2ccc(N(C)C)cc2)nc2ccccc21`, the EC50 [3] is reported as > 60 µM (not active), the EC50 [4] is reported as 1.67 µM (active) and the AC50 [5] is reported as 1.48 µM (active). The AC50 [6] was 4.25 µM (active).

For `CCOC(=O)CC1(CC(=O)OCC)NC(=O)c2c(C)sc(C(=O)OCC)c2N1`, the IC50 [1] was 13.8 µM (active).

In the case of `CCOC(=O)c1cccc(NC(=O)CCS(=O)(=O)c2cccc3nsnc23)c1`, the IC50 [1] is reported as 14.8 µM (active).

With `c1ccc2nc3[nH]cnc3nc2c1` the IC50 [7] was > 66 µM (inactive) and the IC50 [8] was > 66 µM (inactive).

In the case of `CC1CCN(S(=O)(=O)c2nnc(NC(=O)c3cccc([N+](=O)[O-])c3)s2)CC1`, the IC50 [1] is reported as 11.5 µM (active).

With `CCO/C(O)=C1/Sc2cc(C)ccc2N=C1C` the IC50 [7] was > 66 µM (inactive) and the IC50 [8] was > 66 µM (inactive).

For `CCCn1nc2cc(C(=O)NCc3ccc(C)cc3)ccc2c1OCC`, the IC50 [1] was 8.18 µM (active).

With `COc1ccccc1N/C=C/c1onc(C)c1[N+](=O)[O-]` the AC50 [9] was 3.4 µM (active), the AC50 [10] was 4.75 µM (active) and the AC50 [11] was > 52 µM (inactive).

In the case of `O=C(Nc1nc2cc3c(cc2s1)OCO3)C1=COCCO1`, the AC50 [12] is reported as 3.77 µM (active), the EC50 [13] is reported as 1.22 µM (active) and the EC50 [14] is reported as 6.64 µM (active). The EC50 [15] was 2.39 µM (inconclusive).

For `Cc1ccc(/C=C(\NC(=O)c2ccc(C)cc2)c2n[nH]c(S)n2)cc1`, the CC50 [16] was > 40 µM (active).

With `CC(C)c1ccc(NC2CCCN(C(=O)c3cc(C(C)C)nc(N)n3)C2)cc1` (stereo not drawn) the AC50 [5] was 0.714 µM (active).

For `CC(Oc1ccccc1Cl)C(=O)Nc1ccc(S(=O)(=O)N2CCN(C)CC2)cc1` (stereo not drawn), the IC50 [7] was > 66 µM (inactive) and the IC50 [8] was > 66 µM (inactive).

In the case of `O=C(CCc1nc(O)c2ccccc2n1)N1CCN(c2ccccc2Cl)CC1`, the IC50 [2] is reported as > 79 µM (inactive).

In the case of `CCOC(=O)COc1ccc2c3c(c(=O)oc2c1)CCCC3`, the IC50 [2] is reported as 31.2 µM (inactive).

In the case of `CN(C)c1ccc(/C=N/NC(=O)c2ccccn2)cc1`, the AC50 [5] is reported as 35.5 µM (active).
